Source: patent US20100267803A1, “Regulators Of Fat Metabolism As Anti-Cancer Targets” (The Research Foundation of State University Of New York, priority 2008, published 2010)

Key:
Format in all cases: cell-based, human
[1] = test system: nonoverexpressing breast cancer cell lines (MCF-7, MDA-MB-453, MDA-MB-468), HMECs, HEK 293FT; assay: alamarBlue proliferation of shRNA-transfected ERBB2 non-overexpressing cell lines; conditions: MCF-7, MDA-MB-453, MDA-MB-468, HMEC, shRNA transfection
Text: FIG. 1 An RNAi screen targeting genes overexpressed in breast cancer. (a) Three transfection mixes were produced for each shRNA and each was transfected into triplicate wells of BT474 cells. AlamarBlue was used to monitor cell proliferation and viability. […] (b) The genetic and functional linkage of NR1D1 and PBP. Mb refers to map position on chromosome 17. (c) ERBB2-overexpressing (OEX) and ERBB2 non-overexpressing (non-OEX) breast cancer cell lines as well as the (non-OEX) HMEC and HEK 293 cells were transfected and assayed as in (a). […] Genes clustered with ERBB2 are boxed.
To assess the specificity of effect of each shRNA on cell proliferation, those causing the greatest decrease in BT474 cell proliferation were transfected in a variety of cell lines, including ERBB2 overexpressing (BT474, MDA-MB-361) and nonoverexpressing breast cancer cell lines (MCF-7, MDA-MB-453, MDA-MB-468), normal human mammary epithelial cells (HMECs) and a non-breast tumorigenic cell line (HEK 293FT). […] PBP, NRID1 and PFN2 shRNAs clustered with ERBB2.
RNAi screen, transfections and constructs. The flag-RevErba (flag-NR1D1) overexpression construct was a generous gift of M. Lazar. The LSXN-neu* (ERBB2) overexpression construct was a generous gift of L. Petti. shRNA constructs were expressed from the pSHAG-MAGIC 2 (pSM2) vector and derived from a genome-wide shRNA library^31. ShRNAs targeting the firefly (Photinus pyralis) luciferase gene were used as controls. Transfection efficiency was monitored by co-transfection with a modified MSCV-Puro vector expressing green fluorescent protein (GFP). The alamarBlue (Biosource) assay was performed 96 h post-transfection, since BT474 cells have a population doubling time of ˜100 hours. […] For quantification of alamarBlue we used a BioTek HT Synergy plate reader. AlamarBlue values from the RNAi screens on other cell types were also calculated as above and subjected to hierarchical cluster analysis using Cluster 2.11 (M. Eisen Lab).

ERBB2 mRNA = assay: qRT-PCR of ERBB2 mRNA in BT474 cells; conditions: shRNA 48 h
Experimental: Results are shown as percentage of control. (**P=0.03). (c) BT474 cells were transfected with luciferase (control), PBP and NR1D1 shRNAs and co-transfected with GFP. Green cells were counted at intervals and expressed as percentage of control. (Error bars are s.d from 3 individual experiments; *P<0.08, **P<0.03, ***P<0.005). (d) BT474 cells were transfected with luciferase (control), PBP or NR shRNAs for 48 h. Immunofluorescence was performed for cleaved Caspase-3 signal; cell nuclei were stained with Hoechst 33243. (e) Cells from […] were counted for cleaved Caspase-3 signal. (Error bars are s.d from 3 individual experiments; ***P<0.0003). (f) BT474 cells were transfected with luciferase (control) PBP, NR1D1 or PBP and NR1D1 shRNAs together and co-transfected with GFP. Transfected cells were counted at 24 h and 72 h and the 72 h-to-24 h ratio for each shRNA was calculated and expressed as % of the control shRNA (luciferase). (Error bars are s.d from 3 individual experiments; **P=0.01, ***P<0.002). (g) Cells from (f) were counted for cleaved Caspase-3 signal. (Error bars are s.d from 3 individual experiments; ***P<0.0001). (h) ERBB2 mRNA levels of BT474 cells transfected with luciferase (control), PBP or NR1D1 shRNAs for 48 h, analyzed by qRT-PCRs. (Error bars are s.d from 3 individual experiments; ***P=0.0001).
Cell viability—apoptosis assays. […]

FASN mRNA = assay: qRT-PCR of FASN mRNA in BT474 cells; conditions: shRNA or 20 μM GW9662 for 48 h
Experimental: (§1) FIG. 4 NR1D1 and PBP coordinate fatty acid metabolism in breast cancer cells. (a) BT474, MDA-MB-361, MCF-7 and HMEC cells were stained with Oil-Red O lipid and hematoxylin nuclear stains. (b) Fat stores were quantified by BODIPY 493/503 lipid probe staining (Error bars are s.d from 3 individual experiments). (c) FASN, ACLY, ACACA and FADS2 mRNA levels of BT474 cells treated with luciferase (control), PBP or NR1D1 shRNAs, or with vehicle and 20 μM of GW9662 for 48 h, analyzed by qRT-PCRs. (Error bars are s.d from 3 experiments; ***P<0.001, **P=0.005) (d) BT474 cells were transfected with FASN, ACLY and ACACA shRNAs and co-transfected with GFP. Transfected cells were counted at 24 h and 72 h and the 72h-to-24 h ratio for each shRNA was calculated and expressed as % of the control shRNA (luciferase). (Error bars are s.d from 3 individual experiments; **P<0.01, ***P<0.002). (e) BODIPY images and (f) quantification of BT474 cells transfected with luciferase (control), PBP or NR1D1 shRNAs and co-transfected with DsRed (Error bars are s.d from 3 individual experiments; ***P<0.03). Arrows indicate transfected cells.
(§2) Cell viability—apoptosis assays. […] At least 30 fields were imaged per single experiment. […] Immunoblotting. […] PCR reaction was run using standard conditions.

ACACA mRNA = assay: qRT-PCR of ACACA mRNA in BT474 cells; conditions: shRNA or 20 μM GW9662 for 48 h
Experimental: as §1, §2

FADS2 mRNA = assay: qRT-PCR of FADS2 mRNA in BT474 cells; conditions: shRNA or 20 μM GW9662 for 48 h
Experimental: as §1, §2

| Substance | effect on other cell lines or HMECs [1] | mRNA levels of ERBB2 (ERBB2 mRNA) | FASN transcript level (FASN mRNA) | ACACA transcript level (ACACA mRNA) | FADS2 transcript levels (FADS2 mRNA) |
| --- | --- | --- | --- | --- | --- |
| PBP shRNA: shRNA, mature sequence CCGAGTTCCTCTTATCCTA (shRNA) | without effect on other cell lines or HMECs | significantly decreased | reduced | reduced | downregulated |
| NR1D1 shRNA: shRNA, mature sequence GGCATGGTGTTACTGTGTA (shRNA) | without effect on other cell lines or HMECs | no effect | reduced | reduced | downregulated |
